Data on seven compounds can be found in EP1972611A1, “ARYL DIHYDRO-NAPHTHALENE COMPOUNDS, THEIR PREPARATION AND THEIR USE AS AKT INHIBITOR FOR THE PREVENTION AND TREATMENT OF CANCER” (Central South University, priority 2005, dated 2007).

One assay concerns COC1 cell. Nature of the assay: Inhibition of COC1 cell growth measured by MTT method. The assay is classed as cell-based. Conditions: Homo sapiens, COC1 cells, 48 hours; for IC50: Calcusyn program. The protocol:
(§1) Cell lines of COC1, SMMC-7721, MCF-7and HT-29 were purchased from Chinese storage center for typical culture. Cells were cultured in RPMI1640 with 10% FCS at 37°C and 5% of CO2. Cells at log phase were harvested for the experiment.
(§2) Cells growth inhibition was measured with MTT method. Cells suspension of 1.0-1.2×10^5/ml were prepare and transferred to 96 well plate, 180µl per well. After further incubation for 2 hours, 20µl of various reagents were added to each well. The cells were back to incubator for 48 hours, and followed with addition of MTT of 20µl (5mg/ml)to each will. Additional incubation 6 hours later, the plate was centrifuged at 1000 rpm for 5 minutes. After aspirating supernatant, 100µl DMSO were added to each well and the optical density were measured at 490nm. The cells inhibition (IR) is calculated as : IR(%)=[1-A(treated)/A(control)]×100% , where is A is optical density. The IR was analyzed using Calcusyn program to determine the IC50 of each drug

The next assay relates to SMMC-7721 cell. As to the kind of experiment: Inhibition of SMMC-7721 cell growth measured by MTT method. The assay is classed as cell-based. Conditions: Homo sapiens, SMMC-7721 cells, 48 hours. On the procedure: as §1, §2
For orientation: Tetrazolium assays rely on reduction of a dye to a coloured formazan, in cell work by metabolically active cells.

In the next assay the test system is MCF-7 cell. As to the kind of experiment: Inhibition of MCF-7 cell growth (MTT method). The assay is classed as cell-based. Conditions: Homo sapiens, MCF7, MCF-7 cells, 48 hours; for IC50: Calcusyn program. On the procedure:
as §1, §2

A further assay concerns HT-29 cell. As to the kind of experiment: Inhibition of HT-29 cell growth (MTT method). Type of assay: cell-based. The note with it: Homo sapiens, HT-29 cells, 48 hours. On the procedure:
as §1, §2

The subject of the next assay is Akt. As to the kind of experiment: Inhibition of Akt activation (phosphorylation) in breast cancer cells, Western analysis. Type of assay: cell-based, human. Conditions: MDA-MB-435 cells; for inhibition of Akt activation by suppressing its phosphorylation: 12 hours, 0, 0.5 µM, 4 µM, and 8 µM, Fig. 3; for levels of total non-phosphorylated Akt protein: Western analysis; for Akt phosphorylation: dose of 4 µM. The protocol: Experimental Design: MDA-MB-435 human breast cancer cells were cultured in the DMEM medium with 5% FCS. When cells reached approximately 50-60% confluence, cells were treated with VB-1 and VB-2 for 12 hours at the following doses: 0, 0.5 µM, 4 µM, and 8 µM. Control and treated cells are harvested and total protein was isolated, normalized, and 45 µg of total protein was subjected to Western analysis. The expression of phosphorylated Akt was determined by using a specific anti-phosphorylated Akt antibody and normalized for total Akt protein expression.

The subject of assay [1] is MDA-MB-435 human breast cancer cells. As to the kind of experiment: Growth inhibition of MDA-MB-435 cells measured with MTT method (example titled induction of apoptosis). Type of assay: cell-based. The note with it: for cells growth (percentage of the control group): p value less than 0.005. The protocol:
Experimental design: MDA-MB-435 human breast cancer cells were cultured in the DMEM medium with 5% FCS. Cells were treated with VB-1 at 2 µM, 4 µM and 10 µM for 3 days. Cells were collected from control and treated groups and measured with MTT method.

In assay [2] the test system is human ovarian tumor cells (CoC1). As to the kind of experiment: In vivo tumor treatment model: nude mice inoculated with CoC1 tumor cells, tumor volume. On the set-up: species or system Balb/c-nu mice. The note with it: for Suppression rate of tumor growth (%): vs. control (NS); for Volume (mm^3): x±s, n=4. On the procedure: Experimental Design: Human ovarian tumor cells (CoC1) were purchased from Chinese storage center for typical culture. Cells were cultured in RPMI1640 with 10% FCS. Sub-culture for every 2-3 days. Cells at log phase were harvested for the experiment. Approximately 2x10^6 CoC1 cells were injected subcutaneously into the back of the Balb/c-nu female nude mice at the age of 6-7 weeks. When tumors reached to ≥ 1000 mm^3 (about 30 days), mice bearing similar size tumors were divided into 2 groups: control (NS) and VB-2 treated group. Each group has 4 mice.
VB-2 was dissolved into DMSO and further diluted with normal saline. […] Treatment groups received drugs every other day until the termination of the experiment. All mice were sacrificed at day 20 after the first treatment. Tumor size was determined by three-dimensional measurements (mm) using a caliper. Only measurable tumors were used to calculate the mean tumor volume for each clone at each time point. Each point represents the mean of tumors ± SE. Statistical comparisons for tumor size in treated mice relative to control mice indicate: ** p < 0.01.

Values after ≈ are worked out from the molar mass of the structure shown. Marks after values point to notes of the source that are not given here.

Take `COc1cc([C@H]2c3cc(O)c(OC)cc3C=C(C=O)[C@@H]2CO)ccc1O` [VB-1, 6-hydroxy-4-(4-hydroxy-3-methoxyphenyl)-3-hydroxymethyl-7-methoxy-3,4-dihydro-(3R, 4S)-2-naphthaldehyde]: the inhibition at 0.4 µg/mL with COC1 cell (0.4 µg/ml) is 27.1%. Further, in the assay with COC1 cell, the inhibition at 0.5 µg/mL was determined as 42.7% and the IC50 was 0.63 µg/mL (≈ 1.77 µM). In addition, the inhibition at 0.6 µg/mL in the assay with COC1 cell (0.6 µg/ml) came out at 48.1%. Moreover, in the assay on COC1 cell (0.8 µg/ml), the inhibition at 0.8 µg/mL amounted to 65.9%. In the assay with COC1 cell (1.0 µg/ml), this compound showed an inhibition at 1 µg/mL of 66.9%. In the assay with SMMC-7721 cell (1.00 µg/ml), this compound registered an inhibition at 1 µg/mL of 20.1%. The same compound displayed an inhibition at 10 µg/mL in the assay on SMMC-7721 cell (10.00 µg/ml) of 22.3%. Also, in the assay on MCF-7 cell, the inhibition at 0.1 µg/mL was 6.4%, at 0.3 µg/mL the inhibition was 9.1%, 1 µg/mL produced 12.7% inhibition and at 3 µg/mL the inhibition was 13.8%. In addition, in the assay on MCF-7 cell, the inhibition at 10 µg/mL is 41.1% and the half-maximal inhibitory concentration (IC50) is 58 µg/mL (≈ 163 µM). Also, at 1 µg/mL the inhibition with HT-29 cell (1.00 µg/ml) was 22.1%. This compound also came in with an inhibition at 10 µg/mL with HT-29 cell (10.00 µg/ml) of 32.3%. The “inhibition of Akt activation by suppressing its phosphorylation” value in the assay on Akt is given as “dose-dependent inhibition”. Further, in the assay on Akt (12 hours), the “levels of total non-phosphorylated Akt protein” value is listed as “no effects” and the Akt phosphorylation result is given as “significantly block”. Besides, the Akt activation result in the assay with Akt (12 hours, dose of 8 µM) is on record as “completely blocks”. The cell inhibition entry in assay [1] (2 µM, 4 µM and 10 µM for 3 days, Fig 4) is listed as “dose dependent cell inhibition”. Moreover, the “cells growth (percentage of the control group)” value in assay [1] (4 µM, 3 days) was “significantly less than the control group”. Besides, the “cells growth (percentage of the control group)” value in assay [1] (8 µM, 3 days) was “significantly less than the control group”. In assay [1] (Homo sapiens, 72 h, 10 µM, 3 days), this compound showed an inhibition at 10 µM of approximately 50%.
For the compound `COc1cc([C@H]2c3c(ccc(O)c3OC)C=C(C=O)[C@@H]2CO)ccc1O` [VB-2, 6-hydroxy-4-(4-hydroxy-3-methoxyphenyl)-3-hydroxymethyl-5-methoxy-3,4-dlhydro(3R, 4S)-2-naphthaldehyde], in the assay with COC1 cell, the inhibition at 0.5 µg/mL came to 39.9%, the inhibition at 5 µg/mL was found to be 34.1% and 50 µg/mL produced 39.5% inhibition. In the assay on MCF-7 cell, this compound showed an inhibition at 0.1 µg/mL of 10.6%, an inhibition at 0.3 µg/mL of 15.8%, an inhibition at 1 µg/mL of 17.6% and an inhibition at 3 µg/mL of 26.4%. In the assay on MCF-7 cell, the inhibition at 10 µg/mL stood at 28.7% and the IC50 is 226 µg/mL (≈ 635 µM). The “Suppression rate of tumor growth (%)” value in assay [2] (day 5, dosage 5 mg/kg, i.p. every other day) was 7.8%. In assay [2] (day 10, dosage 5 mg/kg, i.p. every other day), the “Suppression rate of tumor growth (%)” value turned out to be 66.5%. Further, the “Suppression rate of tumor growth (%)” value in assay [2] (day 15, dosage 5 mg/kg, i.p. every other day) is listed as 64.5%. For the same compound, the “Suppression rate of tumor growth (%)” value in assay [2] (day 20, dosage 5 mg/kg, i.p. every other day) was determined as 55.7%. Besides, the “Volume (mm^3)” value in assay [2] (initial tumor volume before treatment, dosage 5 mg/kg) amounted to 1543±1466 mm^3. The “Volume (mm^3)” value in assay [2] (tumor volume at day 5, dosage 5 mg/kg, i.p. every other day) is 2542±1718 mm^3. In addition, in assay [2] (tumor volume at day 10, dosage 5 mg/kg, i.p. every other day), the “Volume (mm^3)” value is 2131±1207* mm^3. In addition, in assay [2] (tumor volume at day 15, dosage 5 mg/kg, i.p. every other day), the “Volume (mm^3)” value is 3600±1755* mm^3. For the same compound, the “Volume (mm^3)” value in assay [2] (tumor volume at day 20, dosage 5 mg/kg, i.p. every other day) is 4495±2087** mm^3. For the same compound, the “inhibition of Akt activation by suppressing its phosphorylation” value with Akt is reported as “dose-dependent inhibition”. In addition, in the assay on Akt (12 hours), the “levels of total non-phosphorylated Akt protein” value is on record as “no effects” and the Akt phosphorylation result was “significantly block”.
As to `COc1cc([C@H]2c3cc(O)c(OC)cc3C=C(C=O)[C@@H]2CO[C@@H]2O[C@H](CO)[C@@H](O)[C@H](O)[C@H]2O)ccc1O` [VB-3, 6-hydroxy-4-(4-hydroxy-3-methoxyphenyl)-3-glucosyloxymethyl-7-methoxy-3,4-dihydro-(3R, 4S)-2-naphthaldehyde], in the assay with MCF-7 cell, the inhibition at 0.1 µg/mL is 10.6%, the inhibition at 0.3 µg/mL turned out to be 11.3%, at 1 µg/mL the inhibition was 14% and at 3 µg/mL the inhibition was 18.5%. Moreover, in the assay with MCF-7 cell, at 10 µg/mL the inhibition was 13.8% and the IC50 is 9260 µg/mL (≈ 17900 µM).
Consider `COc1cc([C@H]2c3cc(O)c(OC)cc3C=C(CO)[C@@H]2CO)ccc1O` [VB-4, 6-hydroxy-7-methoxy-4-(4-hydroxy-3-methoxyphenyl)-2,3-dihydroxymethyl-3,4-dihydro(3R, 4S)-2-hydroynaphthalene], for which, in the assay on COC1 cell, 0.5 µg/mL produced 38.8% inhibition, testing at 5 µg/mL gave an inhibition of 40.2% and the inhibition at 50 µg/mL was 40.6%. Further, in the assay on MCF-7 cell, testing at 0.1 µg/mL gave an inhibition of 19.7%, the inhibition at 0.3 µg/mL is 15.6%, the inhibition at 1 µg/mL amounted to 12.3% and the inhibition at 3 µg/mL came to 13.2%. In the assay on MCF-7 cell, this compound showed an inhibition at 10 µg/mL of 24%.
`COc1cc2c(cc1O)[C@H](c1ccc(O[C@@H]3O[C@H](C(=O)O)[C@@H](O)[C@H](O)[C@H]3O)c(OC)c1)[C@@H](CO)C(C=O)=C2` [VB-5, 6-hydroxy-3-hydroxymethyl-4-(3-methoxyphenyl)-7-methoxy-3,4-dihydro-2-naphthaldehyde-4'-O-β-D-glucopyranosiduronic acid]: in the assay with COC1 cell, the inhibition at 0.5 µg/mL is 14.3%, the inhibition at 5 µg/mL was found to be 28.7%, at 50 µg/mL the inhibition was 35.2% and the IC50 is 371 µg/mL (≈ 697 µM). In addition, in the assay on MCF-7 cell, the inhibition at 0.1 µg/mL was found to be 13.6%, the inhibition at 0.3 µg/mL is 22%, the inhibition at 1 µg/mL turned out to be 23.2% and the inhibition at 3 µg/mL was found to be 13.6%. Also, in the assay on MCF-7 cell, 10 µg/mL produced 30.4% inhibition and the half-maximal inhibitory concentration (IC50) is 471 µg/mL (≈ 885 µM).
With `COc1ccc(C2c3cc(OC)c(OC)cc3C=C(C=O)C2CO)cc1OC` (centres unmarked) [VB-6, 6-methoxy-4-(4-methoxy-3-methoxyphenyl)-3-hydroxymethyl-7-methoxy-3,4dihydro-2-naphthaldehyde], in the assay with COC1 cell, the inhibition at 0.5 µg/mL turned out to be 37%, the inhibition at 5 µg/mL was determined as 45.6%, 50 µg/mL produced 57.1% inhibition and the 50% inhibitory concentration (IC50) is 11.1 µg/mL (≈ 28.8 µM). Besides, in the assay with MCF-7 cell, the inhibition at 0.1 µg/mL worked out at 10.9%, the inhibition at 0.3 µg/mL was 19.9%, the inhibition at 1 µg/mL was found to be 22.8% and testing at 3 µg/mL gave an inhibition of 41.2%. Moreover, in the assay on MCF-7 cell, the inhibition at 10 µg/mL turned out to be 46.4% and the IC50 is 11.2 µg/mL (≈ 29 µM).
For the compound `COc1cc([C@H]2c3cc(OC)c(OC)cc3C=C(C=O)[C@@H]2CO)ccc1O` [VB-7, 6,7-dimethoxy-4-(4-hydroxy-3-methoxyphenyl)-3-hydroxymethyl-3,4-dihydro (3R,4S) -2-naphthaldehyde], in the assay with COC1 cell, the inhibition at 0.5 µg/mL worked out at 14.3%, the inhibition at 5 µg/mL was determined as 27.6%, testing at 50 µg/mL gave an inhibition of 50% and the half-inhibitory concentration (IC50) was 53.2 µg/mL (≈ 144 µM).

The inhibition is how much of the control response was suppressed. The low end stands for a response near the control, the high end for a response far below the control. The term IC50 denotes the point on the concentration scale where inhibition reaches its midpoint.
